In ChEMBL document CHEMBL5260810, “Inhibition of bromodomain-containing protein 9 for the prevention of epigenetically-defined drug resistance” (Bioorg Med Chem Lett, 2017):

Experiments:
[1] = target: Insulin receptor (Homo sapiens) (UniProt P06213); assay: Inhibition of InsR (unknown origin) at 1 uM relative to control
LNCaP [2] = assay: Cytotoxicity against human LNCaP/Ner cells measured after 8 days; format: functional, cell-based; settings: 192 h
[3] = Cytotoxicity against human OVCAR433 cells measured after 8 days; format: functional, cell-based; settings: OVCAR433, 192 h
NCI-H2009 = assay: Cytotoxicity against human NCI-H2009 cells measured after 8 days; format: functional, cell-based; settings: NCI-H2009, 192 h
A-375 = assay: Cytotoxicity against human A-375 cells measured after 8 days; format: functional, cell-based; settings: A-375, 192 h
MDA-MB-231 = assay: Cytotoxicity against human MDA-MB-231 cells measured after 8 days; format: functional, cell-based; settings: MDA-MB-231, 192 h
[4] = Cytotoxicity against human HMY-1 cells measured after 8 days; format: functional, cell-based; settings: HMY-1, 192 h
Daudi = assay: Cytotoxicity against human Daudi cells measured after 8 days; format: functional, cell-based; settings: 192 h
Caco-2 = assay: Cytotoxicity against human Caco-2 cells measured after 8 days; format: functional, cell-based; settings: Caco-2, 192 h
[5] = target: Glycogen synthase kinase-3 beta (Homo sapiens) (UniProt P49841); assay: Inhibition of GSK3beta (unknown origin) at 1 uM relative to control
Chain of Glycogen synthase kinase-3 beta (Homo sapiens) (P49841 whole entry, looked up): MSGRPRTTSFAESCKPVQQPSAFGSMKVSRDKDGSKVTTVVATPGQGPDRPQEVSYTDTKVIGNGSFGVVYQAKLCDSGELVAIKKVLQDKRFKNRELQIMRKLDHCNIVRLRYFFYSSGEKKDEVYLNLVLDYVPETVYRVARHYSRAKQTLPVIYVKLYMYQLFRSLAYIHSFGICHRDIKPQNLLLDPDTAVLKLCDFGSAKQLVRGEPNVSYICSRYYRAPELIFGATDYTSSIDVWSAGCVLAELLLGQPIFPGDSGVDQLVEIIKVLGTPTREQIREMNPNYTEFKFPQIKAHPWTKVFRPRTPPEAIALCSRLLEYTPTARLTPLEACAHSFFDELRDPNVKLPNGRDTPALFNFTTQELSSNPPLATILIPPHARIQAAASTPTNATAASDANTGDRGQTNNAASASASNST

[6] = Cytotoxicity against human NCI-H2110 cells measured after 8 days; format: functional, cell-based; settings: NCI-H2110, 192 h
[7] = Cytotoxicity against human KMS-21BM cells measured after 8 days; format: functional, cell-based; settings: 192 h
LS180 = assay: Cytotoxicity against human LS180 cells measured after 8 days; format: functional, cell-based; settings: LS180, 192 h
MDA-MB-468 = assay: Cytotoxicity against human MDA-MB-468 cells measured after 8 days; format: functional, cell-based; settings: MDA-MB-468, 192 h
[8] = target: Macrophage colony-stimulating factor 1 receptor (Homo sapiens) (UniProt P07333); assay: Inhibition of CSF1R (unknown origin) at 1 uM relative to control
Chain of Macrophage colony-stimulating factor 1 receptor (Homo sapiens) (P07333 whole entry): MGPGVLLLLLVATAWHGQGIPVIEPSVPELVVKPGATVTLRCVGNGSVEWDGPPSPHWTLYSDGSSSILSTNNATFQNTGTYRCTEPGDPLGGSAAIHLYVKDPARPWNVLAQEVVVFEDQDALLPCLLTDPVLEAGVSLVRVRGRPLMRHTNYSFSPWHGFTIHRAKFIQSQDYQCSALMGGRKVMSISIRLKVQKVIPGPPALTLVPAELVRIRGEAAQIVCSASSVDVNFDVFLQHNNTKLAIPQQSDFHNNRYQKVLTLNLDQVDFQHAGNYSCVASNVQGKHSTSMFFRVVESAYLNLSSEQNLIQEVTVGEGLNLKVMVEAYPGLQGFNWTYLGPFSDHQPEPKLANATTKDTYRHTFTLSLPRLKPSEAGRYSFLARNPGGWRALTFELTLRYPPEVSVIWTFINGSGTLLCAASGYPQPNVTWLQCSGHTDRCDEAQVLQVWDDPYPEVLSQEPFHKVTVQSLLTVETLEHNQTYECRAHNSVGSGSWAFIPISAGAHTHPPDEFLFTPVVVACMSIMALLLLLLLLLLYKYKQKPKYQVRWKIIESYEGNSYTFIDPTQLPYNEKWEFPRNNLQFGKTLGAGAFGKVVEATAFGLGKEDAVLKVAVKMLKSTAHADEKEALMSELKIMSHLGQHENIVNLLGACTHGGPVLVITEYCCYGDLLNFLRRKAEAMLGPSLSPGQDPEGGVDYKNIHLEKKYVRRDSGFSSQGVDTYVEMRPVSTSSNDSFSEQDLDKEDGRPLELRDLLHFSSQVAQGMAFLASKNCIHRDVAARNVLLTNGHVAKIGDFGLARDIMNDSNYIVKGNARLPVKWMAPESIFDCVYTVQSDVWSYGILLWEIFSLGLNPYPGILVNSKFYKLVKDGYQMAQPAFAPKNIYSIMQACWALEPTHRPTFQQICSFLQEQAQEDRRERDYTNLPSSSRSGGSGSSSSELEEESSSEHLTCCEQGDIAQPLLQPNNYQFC

NCI-H1651 = assay: Cytotoxicity against human NCI-H1651 cells measured after 8 days; format: functional, cell-based; settings: NCI-H1651, 192 h
RL = assay: Cytotoxicity against human RL cells measured after 8 days; format: functional, cell-based; settings: 192 h
DU-145 = assay: Cytotoxicity against human DU-145 cells measured after 8 days; format: functional, cell-based; settings: DU-145, 192 h
MHH-PREB-1 = assay: Cytotoxicity against human MHH-PREB-1 cells measured after 8 days; format: functional, cell-based; settings: MHH-PREB-1, 192 h
[9] = Cytotoxicity against human KMS-28PE cells measured after 8 days; format: functional, cell-based; settings: 192 h
HEY = assay: Cytotoxicity against human HEY cells measured after 8 days; format: functional, cell-based; settings: 192 h
NCI-H1703 = assay: Cytotoxicity against human NCI-H1703 cells measured after 8 days; format: functional, cell-based; settings: NCI-H1703, 192 h
[10] = target: T1, Adenosine receptor A1 (Homo sapiens) (UniProt P30542); assay: Displacement of [3H]-DPCPX from human recombinant adenosine A1 receptor at 10 uM after 60 mins by scintillation counting analysis relative to control
T1 sequence (whole entry): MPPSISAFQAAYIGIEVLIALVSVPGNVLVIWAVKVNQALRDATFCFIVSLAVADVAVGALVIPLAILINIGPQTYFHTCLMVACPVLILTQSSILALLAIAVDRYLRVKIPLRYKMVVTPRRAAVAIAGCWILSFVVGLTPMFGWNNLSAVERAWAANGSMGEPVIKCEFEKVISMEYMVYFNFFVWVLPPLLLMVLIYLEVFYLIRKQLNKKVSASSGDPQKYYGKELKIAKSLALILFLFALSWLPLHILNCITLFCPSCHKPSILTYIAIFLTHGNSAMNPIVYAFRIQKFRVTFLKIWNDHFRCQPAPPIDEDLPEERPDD

[11] = Cytotoxicity against human RERF-LC-OK cells measured after 8 days; format: functional, cell-based; settings: 192 h
HOP-92 = assay: Cytotoxicity against human HOP-92 cells measured after 8 days; format: functional, cell-based; settings: HOP-92, 192 h
[12] = target: T2, Bromodomain-containing protein 7 (Homo sapiens, UniProt Q9NPI1); assay: Binding affinity to human partial length BRD7 (L125 to R254 residues) expressed in mammalian expression system by BROMOscan assay
T2 sequence (Q9NPI1 whole entry): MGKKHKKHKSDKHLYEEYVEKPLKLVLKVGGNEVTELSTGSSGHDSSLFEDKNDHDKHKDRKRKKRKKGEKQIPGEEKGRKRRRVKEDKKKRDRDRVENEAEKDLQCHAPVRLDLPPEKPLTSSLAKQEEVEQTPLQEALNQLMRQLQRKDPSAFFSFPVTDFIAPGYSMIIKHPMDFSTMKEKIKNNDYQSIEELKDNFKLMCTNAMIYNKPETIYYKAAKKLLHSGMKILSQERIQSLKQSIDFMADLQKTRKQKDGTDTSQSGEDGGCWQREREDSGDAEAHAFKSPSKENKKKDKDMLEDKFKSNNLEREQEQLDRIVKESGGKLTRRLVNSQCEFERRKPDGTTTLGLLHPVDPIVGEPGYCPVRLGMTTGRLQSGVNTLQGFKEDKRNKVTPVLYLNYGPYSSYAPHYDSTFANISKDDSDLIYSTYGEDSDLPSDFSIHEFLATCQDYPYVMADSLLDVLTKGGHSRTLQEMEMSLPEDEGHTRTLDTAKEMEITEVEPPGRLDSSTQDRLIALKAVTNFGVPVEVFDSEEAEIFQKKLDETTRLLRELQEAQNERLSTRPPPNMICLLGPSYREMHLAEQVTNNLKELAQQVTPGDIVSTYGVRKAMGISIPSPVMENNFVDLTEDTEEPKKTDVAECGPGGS

Ramos = assay: Cytotoxicity against human Ramos cells measured after 8 days; format: functional, cell-based; settings: 192 h
NCI-H2405 = assay: Cytotoxicity against human NCI-H2405 cells measured after 8 days; format: functional, cell-based; settings: NCI-H2405, 192 h
Hs 294T = assay: Cytotoxicity against human Hs294T cells measured after 8 days; format: functional, cell-based; settings: 192 h
[13] = target: Aurora kinase B (Homo sapiens) (UniProt Q96GD4); assay: Inhibition of Aurora B (unknown origin) at 1 uM relative to control
Chain of Aurora kinase B (Homo sapiens) (Q96GD4 whole entry): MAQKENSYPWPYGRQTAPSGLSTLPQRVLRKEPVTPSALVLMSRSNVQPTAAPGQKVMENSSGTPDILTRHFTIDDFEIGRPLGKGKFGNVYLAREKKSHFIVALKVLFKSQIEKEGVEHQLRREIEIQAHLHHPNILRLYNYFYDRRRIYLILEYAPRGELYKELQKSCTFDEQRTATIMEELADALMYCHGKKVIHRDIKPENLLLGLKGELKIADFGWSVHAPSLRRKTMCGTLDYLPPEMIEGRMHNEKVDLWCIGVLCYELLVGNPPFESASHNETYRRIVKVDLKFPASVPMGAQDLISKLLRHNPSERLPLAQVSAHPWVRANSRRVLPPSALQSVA

LNCaP [14] = assay: Cytotoxicity against human LNCaP clone FGC cells measured after 8 days; format: functional, cell-based; settings: 192 h
[15] = target: 5-hydroxytryptamine receptor 2A (Homo sapiens) (UniProt P28223); assay: Displacement of [3H]ketanserin human recombinant 5-HT2A receptor at 10 uM after 60 mins by scintillation counting analysis relative to control
Chain of 5-hydroxytryptamine receptor 2A (Homo sapiens) (P28223 whole entry): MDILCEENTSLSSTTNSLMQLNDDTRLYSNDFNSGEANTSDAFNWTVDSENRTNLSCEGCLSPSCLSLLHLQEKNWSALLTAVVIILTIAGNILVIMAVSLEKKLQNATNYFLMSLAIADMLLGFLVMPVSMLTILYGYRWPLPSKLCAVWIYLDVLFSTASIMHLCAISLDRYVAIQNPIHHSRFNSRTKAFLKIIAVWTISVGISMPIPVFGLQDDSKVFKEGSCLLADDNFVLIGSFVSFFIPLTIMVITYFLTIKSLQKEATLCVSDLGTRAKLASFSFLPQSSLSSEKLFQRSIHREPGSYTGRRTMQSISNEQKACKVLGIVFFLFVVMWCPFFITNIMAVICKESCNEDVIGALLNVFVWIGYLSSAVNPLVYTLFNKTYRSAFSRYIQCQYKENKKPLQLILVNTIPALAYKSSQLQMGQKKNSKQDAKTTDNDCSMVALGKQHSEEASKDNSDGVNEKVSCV

ONS-76 = assay: Cytotoxicity against human ONS-76 cells measured after 8 days; format: functional, cell-based; settings: ONS-76, 192 h
[16] = Cytotoxicity against human KPL-1 cells measured after 8 days; format: functional, cell-based; settings: KPL-1, 192 h
[17] = Cytotoxicity against human LS174T-HM7 cells measured after 8 days; format: functional, cell-based; settings: LS174T-HM7, 192 h
CW-2 = assay: Cytotoxicity against human CW-2 cells measured after 8 days; format: functional, cell-based; settings: CW-2, 192 h
[18] = target: Kappa-type opioid receptor (Homo sapiens) (UniProt P41145); assay: Displacement of [3H]U69593 from human kappa receptor at 10 uM after 60 mins by scintillation counting analysis relative to control
Chain of Kappa-type opioid receptor (Homo sapiens) (P41145 whole entry): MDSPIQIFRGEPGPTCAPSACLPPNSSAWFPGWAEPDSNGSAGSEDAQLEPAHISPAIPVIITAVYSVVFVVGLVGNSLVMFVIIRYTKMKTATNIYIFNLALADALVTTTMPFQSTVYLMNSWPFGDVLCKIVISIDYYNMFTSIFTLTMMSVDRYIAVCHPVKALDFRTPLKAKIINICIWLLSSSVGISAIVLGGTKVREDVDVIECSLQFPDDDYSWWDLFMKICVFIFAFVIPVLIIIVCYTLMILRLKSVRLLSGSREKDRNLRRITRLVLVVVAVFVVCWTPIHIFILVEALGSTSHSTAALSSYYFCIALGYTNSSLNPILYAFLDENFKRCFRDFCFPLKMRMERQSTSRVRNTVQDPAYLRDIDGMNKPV

KNS-62 = assay: Cytotoxicity against human KNS-62 cells measured after 8 days; format: functional, cell-based; settings: KNS-62, 192 h

Chain of Insulin receptor (Homo sapiens) (P06213 28-758 limits assumed): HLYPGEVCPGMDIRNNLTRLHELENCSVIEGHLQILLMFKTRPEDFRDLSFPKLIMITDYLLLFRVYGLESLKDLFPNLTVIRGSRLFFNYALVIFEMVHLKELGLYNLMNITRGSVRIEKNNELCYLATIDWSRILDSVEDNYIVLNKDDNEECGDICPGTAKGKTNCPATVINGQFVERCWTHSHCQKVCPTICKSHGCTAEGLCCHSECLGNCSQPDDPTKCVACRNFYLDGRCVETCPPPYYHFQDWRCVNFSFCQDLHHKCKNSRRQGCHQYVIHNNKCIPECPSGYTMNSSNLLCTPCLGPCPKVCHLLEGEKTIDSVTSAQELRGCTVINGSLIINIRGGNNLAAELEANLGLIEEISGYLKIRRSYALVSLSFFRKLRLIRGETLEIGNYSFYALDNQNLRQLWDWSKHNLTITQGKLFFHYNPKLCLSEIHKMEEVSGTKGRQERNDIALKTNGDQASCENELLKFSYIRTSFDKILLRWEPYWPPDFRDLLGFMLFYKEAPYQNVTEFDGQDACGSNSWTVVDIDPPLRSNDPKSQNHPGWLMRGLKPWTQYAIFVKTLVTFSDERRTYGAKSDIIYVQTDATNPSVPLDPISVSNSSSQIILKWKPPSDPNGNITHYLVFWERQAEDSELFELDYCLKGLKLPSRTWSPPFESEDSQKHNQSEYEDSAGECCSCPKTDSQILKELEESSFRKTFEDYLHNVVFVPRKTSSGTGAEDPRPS
Chain of Insulin receptor (Homo sapiens) (P06213 763-1382 limits assumed): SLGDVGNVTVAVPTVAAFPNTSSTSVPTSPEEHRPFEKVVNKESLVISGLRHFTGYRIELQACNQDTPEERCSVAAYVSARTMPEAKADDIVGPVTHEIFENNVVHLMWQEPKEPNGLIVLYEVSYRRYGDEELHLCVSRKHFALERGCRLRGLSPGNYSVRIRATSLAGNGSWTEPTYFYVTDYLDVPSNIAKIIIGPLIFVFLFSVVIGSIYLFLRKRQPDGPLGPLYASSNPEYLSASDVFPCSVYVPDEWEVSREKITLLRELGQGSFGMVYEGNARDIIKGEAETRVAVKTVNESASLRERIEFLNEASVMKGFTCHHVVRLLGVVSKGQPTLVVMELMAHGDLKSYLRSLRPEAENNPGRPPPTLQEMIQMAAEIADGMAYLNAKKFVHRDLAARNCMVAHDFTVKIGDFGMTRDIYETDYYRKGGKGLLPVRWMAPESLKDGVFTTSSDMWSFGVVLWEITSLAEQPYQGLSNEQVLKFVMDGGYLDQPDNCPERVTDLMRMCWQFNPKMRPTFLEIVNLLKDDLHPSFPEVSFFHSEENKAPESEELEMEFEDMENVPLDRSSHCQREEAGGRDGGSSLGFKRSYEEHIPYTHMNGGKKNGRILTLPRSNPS

Structure (SMILES)	inhibition [1]	IC50 (LNCaP [2])	IC50 [3]	IC50 (NCI-H2009)	IC50 (A-375)	IC50 (MDA-MB-231)	IC50 [4]	IC50 (Daudi)	IC50 (Caco-2)	inhibition [5]	IC50 [6]	IC50 [7]	IC50 (LS180)	IC50 (MDA-MB-468)	inhibition [8]	IC50 (NCI-H1651)	IC50 (RL)	IC50 (DU-145)	IC50 (MHH-PREB-1)	Kd [12]	other results
C/C=C/Cn1cc(-c2cc(OC)c(C(=O)N3CCOCC3)cc2OC)c2cc(C)[nH]c2c1=O	3%	2 µM	2 µM	2 µM	2 µM	2 µM	2 µM	2 µM	2 µM	2.5%	2 µM	2 µM	2 µM	2 µM	6.5%	2 µM	2 µM	2 µM	2 µM	0.11 µM	IC50 [9]: 2 µM; IC50 (HEY): 2 µM; IC50 (NCI-H1703): 2 µM; Activity [10]: -4%; IC50 [11]: 2 µM; IC50 (HOP-92): 2 µM; IC50 (Ramos): 2 µM; IC50 (NCI-H2405): 2 µM; IC50 (Hs 294T): 2 µM; inhibition [13]: 4.5%; IC50 (LNCaP [14]): 2 µM; Activity [15]: 15%; IC50 (ONS-76): 2 µM; IC50 [16]: 2 µM; IC50 [17]: 2 µM; IC50 (CW-2): 2 µM; Activity [18]: 8%; IC50 (KNS-62): 2 µM
C/C=C/Cn1cc(-c2ccc(C(C)(C)O)cc2OC)c2cc[nH]c2c1=O	4.5%	17.8 µM	20 µM	20 µM	20 µM	20 µM	20 µM	3.77 µM	20 µM	3.5%	20 µM	20 µM	20 µM	20 µM	6.5%	20 µM	14.8 µM	20 µM	20 µM	0.34 µM	IC50 [9]: 20 µM; IC50 (HEY): 20 µM; IC50 (NCI-H1703): 20 µM; Activity [10]: 8%; IC50 [11]: 20 µM; IC50 (HOP-92): 20 µM; IC50 (Ramos): 20 µM; IC50 (NCI-H2405): 20 µM; IC50 (Hs 294T): 20 µM; inhibition [13]: -0.5%; IC50 (LNCaP [14]): 19.9 µM; Activity [15]: 0%; IC50 (ONS-76): 20 µM; IC50 [16]: 17.5 µM; IC50 [17]: 20 µM; IC50 (CW-2): 20 µM; Activity [18]: -1%; IC50 (KNS-62): 14.7 µM
C/C=C/Cn1cc(-c2ccc(C(=O)N3CCOCC3)cc2)c2cc[nH]c2c1=O	1.1%	16.7 µM	20 µM	20 µM	20 µM	20 µM	20 µM	20 µM	20 µM	-2%	20 µM	14.8 µM	20 µM	20 µM	2.8%	20 µM	16.6 µM	20 µM	20 µM	0.2 µM	IC50 [9]: 20 µM; IC50 (HEY): 20 µM; IC50 (NCI-H1703): 20 µM; Activity [10]: 10%; IC50 [11]: 20 µM; IC50 (HOP-92): 20 µM; IC50 (Ramos): 20 µM; IC50 (NCI-H2405): 20 µM; IC50 (Hs 294T): 20 µM; inhibition [13]: -0.4%; IC50 (LNCaP [14]): 16.5 µM; Activity [15]: 11%; IC50 (ONS-76): 20 µM; IC50 [16]: 20 µM; IC50 [17]: 20 µM; IC50 (CW-2): 20 µM; Activity [18]: 6%; IC50 (KNS-62): 20 µM
C/C=C/Cn1cc(-c2cc(OC)c(C(C)(C)O)cc2OC)c2cc(C)[nH]c2c1=O																				0.52 µM	
